Assay results taken from US20080227725A1, “Cosmetic or pharmaceutical composition comprising peptides, uses and treatment processes” (priority 2002, published 2008).
Where a SMILES comes first, the peptide text is derived from it.

System: ERG 1-2 molecule
Assay: Cell differentiation marker ERG 1-2 in HaCat keratinocytes, immunofluorescence
Format: cell-based
Details: HaCat human keratinocytes, at 24 hours

## N=C(N)NCCC[C@H](N)C(=O)NCC(=O)N[C@@H](CO)C(=O)O [Arg-Gly-Ser] (H-Arg-Gly-Ser-OH)
  quantity of ERG molecules present in the cells (intensity of fluorescence), cell differentiation: increases the quantity of ERG molecules
